Source: ChEMBL document CHEMBL1151633, “Biological Activities of Asterosaponins With Special Reference to Structure-Activity Relationships” (J Nat Prod, 1984)
≈ marks a conversion by molar mass, not a printed value. Calls of active or inactive are those of the source. No cut-off for these calls is given here.

What was measured:
Patiria pectinifera [1] = assay: Inhibition of actin polymerization in starfish during embryogenesis
[2] = system: Hemicentrotus pulcherrimus; assay: Inhibition of first cleavage in sea urchin embryo after 1.5 hrs by microscopy; format: functional
[3] = Toxicity in sea urchin embryo assessed as inhibition of embryo development before morula stage after 24 hrs by microscopy; details: hemicentrotus pulcherrimus
Patiria pectinifera [4] = assay: Effect on starfish embryo development assessed as abnormal embryo induction at bastula or gastula stage after 24 hrs by lactoorcein staining; format: functional
[5] = Toxicity in rabbit RBC assessed as hemolytic index; format: cell-based, Oryctolagus cuniculus; details: erythrocyte
Patiria pectinifera [6] = assay: Effect on starfish embryo development assessed as incomplete cytokinesis by lactoorcein staining; format: functional
Patiria pectinifera [7] = assay: Effect on starfish embryo development assessed as occurrence of multinuclei by lactoorcein staining; format: functional

Compound | Activity (Patiria pectinifera [1]) | ED50 [2] | LD99 [3] | ED50 (Patiria pectinifera [4]) | HI [5] | Activity (Patiria pectinifera [6]) | Activity (Patiria pectinifera [7])
CC(C)CC(=O)C[C@@](C)(O)[C@H]1CC[C@H]2[C@@H]3C[C@H](OC4O[C@H](C)[C@@H](O)[C@H](OC5OC[C@@H](OC6O[C@H](CO)[C@H](O)[C@H](O)[C@H]6OC6O[C@H](C)[C@H](O)[C@H](OC7O[C@H](CO)[C@H](O)[C@H](O)[C@H]7O)[C@H]6O)[C@H](O)[C@H]5OC5O[C@H](C)[C@@H](O)[C@H](O)[C@H]5O)[C@H]4O)[C@H]4C[C@@H](OS(=O)(=O)[O-])CC[C@]4(C)C3=CC[C@@]21C.[Na+] (stereo not given in full) | Active | 30 µg/mL | 10 µg/mL | 200 µg/mL | 5100 | – | –
CC(C)CC(=O)C[C@@](C)(O)[C@H]1CC[C@H]2[C@@H]3C[C@H](OC4O[C@H](C)[C@@H](O)[C@H](OC5OC[C@@H](OC6O[C@H](C)[C@@H](O)[C@H](O)[C@H]6OC6O[C@H](C)[C@H](O)[C@H](OC7O[C@H](C)[C@H](O)[C@H](O)[C@H]7O)[C@H]6O)[C@H](O)[C@H]5OC5O[C@H](C)[C@@H](O)[C@H](O)[C@H]5O)[C@H]4O)[C@H]4C[C@@H](OS(=O)(=O)[O-])CC[C@]4(C)C3=CC[C@@]21C.[Na+] (stereo not given in full) | Active | 15 µg/mL | 10 µg/mL | 200 µg/mL | – | – | –
CC(C)CC(=O)C[C@@](C)(O)[C@H]1CC[C@H]2[C@@H]3C[C@H](OC4O[C@H](C)[C@@H](O)[C@H](OC5OC[C@@H](OC6O[C@H](C)[C@@H](O)[C@H](O)[C@H]6OC6O[C@H](C)[C@H](O)[C@H](OC7O[C@H](C)[C@H](O)[C@H](O)[C@H]7O)[C@H]6O)[C@H](O)[C@H]5OC5O[C@H](C)[C@@H](O)[C@H](O)[C@H]5O)[C@H]4O)[C@H]4C[C@@H](O)CC[C@]4(C)C3=CC[C@@]21C (stereo not given in full) | Active | 50 µg/mL (≈ 38.6 µM) | 10 µg/mL | 100 µg/mL (≈ 77.2 µM) | < 2550 | – | –
CC(C)CC(=O)C[C@@](C)(O)[C@H]1CC[C@H]2[C@@H]3C[C@H](OC4O[C@H](C)[C@@H](O)[C@H](OC5OC[C@@H](OC6O[C@H](CO)[C@H](O)[C@H](O)[C@H]6OC6O[C@H](C)[C@H](O)[C@H](O)[C@H]6O)[C@H](O)[C@H]5OC5O[C@H](C)[C@@H](O)[C@H](O)[C@H]5O)[C@H]4O)[C@H]4C[C@@H](OS(=O)(=O)[O-])CC[C@]4(C)C3=CC[C@@]21C.[Na+] (stereo not given in full) | Active | 10 µg/mL | 5 µg/mL | 100 µg/mL | 22000 | – | –
CC(C)C(C)C(=O)C[C@@](C)(O)[C@H]1CC[C@H]2[C@@H]3C[C@H](OC4O[C@H](C)[C@@H](O)[C@H](OC5OC[C@@H](OC6O[C@H](C)[C@@H](O)[C@H](O)[C@H]6OC6O[C@H](C)[C@H](O)[C@H](OC7O[C@H](C)[C@H](O)[C@H](O)[C@H]7O)[C@H]6O)[C@H](O)[C@H]5OC5O[C@H](C)[C@@H](O)[C@H](O)[C@H]5O)[C@H]4O)[C@H]4C[C@@H](OS(=O)(=O)[O-])CC[C@]4(C)C3=CC[C@@]21C.[Na+] (stereo not given in full) | Active | 10 µg/mL | 5 µg/mL | 200 µg/mL | 10700 | – | –
CC(C)CC(=O)C[C@@](C)(O)[C@H]1CC[C@H]2[C@@H]3C[C@H](OC4O[C@H](C)[C@@H](O)[C@H](OC5OC[C@@H](OC6O[C@H](C)[C@@H](O)[C@H](O)[C@H]6OC6O[C@H](C)[C@H](O)[C@H](O)[C@H]6O)[C@H](O)[C@H]5OC5O[C@H](C)[C@@H](O)[C@H](O)[C@H]5O)[C@H]4O)[C@H]4C[C@@H](OS(=O)(=O)O)CC[C@]4(C)C3=CC[C@@]21C.N (stereo not given in full) | Active | 15 µg/mL | 5 µg/mL | 200 µg/mL | – | – | –
CC(C)CC(=O)C[C@@](C)(O)[C@H]1CC[C@H]2[C@@H]3C[C@H](O[C@@H]4O[C@H](C)C(=O)[C@H](OC5O[C@H](C)[C@@H](OC6O[C@H](C)[C@H](O)[C@H](O)[C@H]6OC6O[C@H](C)[C@H](O)[C@H](O)[C@H]6O)[C@H](O)[C@H]5OC5O[C@H](C)[C@@H](O)[C@H](O)[C@H]5O)[C@H]4O)[C@H]4C[C@@H](OS(=O)(=O)[O-])CC[C@]4(C)C3=CC[C@@]21C.[Na+] (stereo not given in full) | Active | 15 µg/mL | 5 µg/mL | 200 µg/mL | 17700 | – | –
CC(C)C(C)C(=O)C[C@@](C)(O)[C@H]1CC[C@H]2[C@@H]3C[C@H](OC4O[C@H](C)[C@@H](O)[C@H](OC5OC[C@@H](OC6O[C@H](CO)[C@H](O)[C@H](O)[C@H]6OC6O[C@H](C)[C@H](O)[C@H](OC7O[C@H](C)[C@H](O)[C@H](O)[C@H]7O)[C@H]6O)[C@H](O)[C@H]5OC5O[C@H](C)[C@@H](O)[C@H](O)[C@H]5O)[C@H]4O)[C@H]4C[C@@H](OS(=O)(=O)[O-])CC[C@]4(C)C3=CC[C@@]21C.[Na+] (stereo not given in full) | Active | 5 µg/mL | 2 µg/mL | 100 µg/mL | 21500 | – | –
CC(C)=CC(=O)C[C@@](C)(O)[C@H]1CC[C@H]2[C@@H]3C[C@H](OC4O[C@H](C)[C@@H](O)[C@H](OC5OC[C@@H](OC6O[C@H](C)[C@@H](O)[C@H](O)[C@H]6OC6O[C@H](C)[C@H](O)[C@H](O)[C@H]6O)[C@H](O)[C@H]5OC5O[C@H](C)[C@@H](O)[C@H](O)[C@H]5O)[C@H]4O)[C@H]4C[C@@H](O)CC[C@]4(C)C3=CC[C@@]21C (stereo not given in full) | Active | 10 µg/mL (≈ 8.72 µM) | 10 µg/mL | 100 µg/mL (≈ 87.2 µM) | – | – | –
CC(C)CC(=O)C[C@@](C)(O)[C@H]1CC[C@H]2[C@@H]3C[C@H](OC4O[C@H](C)[C@@H](O)[C@H](OC5OC[C@@H](OC6O[C@H](CO)[C@H](O)[C@H](O)[C@H]6OC6O[C@H](C)[C@H](O)[C@H](OC7O[C@H](C)[C@H](O)[C@H](O)[C@H]7O)[C@H]6O)[C@H](O)[C@H]5OC5O[C@H](C)[C@@H](O)[C@H](O)[C@H]5O)[C@H]4O)[C@H]4C[C@@H](OS(=O)(=O)[O-])CC[C@]4(C)C3=CC[C@@]21C.[Na+] (stereo not given in full) | Active | 15 µg/mL | 5 µg/mL | 200 µg/mL | 11400 | – | –
CC(C)=CC(=O)C[C@@](C)(O)[C@H]1CC[C@H]2[C@@H]3C[C@H](OC4O[C@H](CO)[C@@H](O)[C@H](OC5O[C@H](C)[C@@H](OC6O[C@H](C)[C@@H](O)[C@H](O)[C@H]6OC6O[C@H](C)[C@H](O)[C@H](O)[C@H]6O)[C@H](O)[C@H]5OC5O[C@H](C)[C@@H](O)[C@H](O)[C@H]5O)[C@H]4O)[C@H]4C[C@@H](OS(=O)(=O)[O-])CC[C@]4(C)C3=CC[C@@]21C.[Na+] (stereo not given in full) | Active | 10 µg/mL | 5 µg/mL | 50 µg/mL | – | – | –
CC(C)C(C)C(=O)C[C@@](C)(O)[C@H]1CC[C@H]2[C@@H]3C[C@H](OC4O[C@H](C)[C@@H](O)[C@H](OC5OC[C@@H](OC6O[C@H](CO)[C@H](O)[C@H](O)[C@H]6OC6O[C@H](C)[C@H](O)[C@H](O)[C@H]6O)[C@H](O)[C@H]5OC5O[C@H](C)[C@@H](O)[C@H](O)[C@H]5O)[C@H]4O)[C@H]4C[C@@H](OS(=O)(=O)[O-])CC[C@]4(C)C3=CC[C@@]21C.[Na+] (stereo not given in full) | Active | 5 µg/mL | 2 µg/mL | 50 µg/mL | 31400 | Active | Active
CC(=O)[C@H]1CC[C@H]2[C@@H]3C[C@H](OC4O[C@H](C)[C@@H](O)[C@H](OC5OC[C@@H](OC6O[C@H](CO)[C@H](O)[C@H](O)[C@H]6OC6O[C@H](C)[C@H](O)[C@H](O)[C@H]6O)[C@H](O)[C@H]5OC5O[C@H](C)[C@@H](O)[C@H](O)[C@H]5O)[C@H]4O)[C@H]4C[C@@H](OS(=O)(=O)[O-])CC[C@]4(C)C3=CC[C@]12C.[Na+] (stereo not given in full) | Active | > 50 µg/mL | > 50 µg/mL | 100 µg/mL | < 2270 | – | –
CC(C)CC(=O)C[C@@](C)(O)[C@H]1CC[C@H]2[C@@H]3C[C@H](OC4O[C@H](CO)[C@@H](O)[C@H](OC5O[C@H](C)[C@@H](OC6O[C@H](C)[C@@H](O)[C@H](O)[C@H]6OC6O[C@H](C)[C@H](O)[C@H](O)[C@H]6O)[C@H](O)[C@H]5OC5O[C@H](C)[C@@H](O)[C@H](O)[C@H]5O)[C@H]4O)[C@H]4C[C@@H](OS(=O)(=O)[O-])CC[C@]4(C)C3=CC[C@@]21C.[Na+] (stereo not given in full) | Active | 5 µg/mL | 5 µg/mL | 50 µg/mL | – | – | –
CC(C)=CC(=O)C[C@@](C)(O)[C@H]1CC[C@H]2[C@@H]3C[C@H](OC4O[C@H](C)[C@@H](O)[C@H](OC5OC[C@@H](OC6O[C@H](CO)[C@H](O)[C@H](O)[C@H]6OC6O[C@H](C)[C@H](O)[C@H](O)[C@H]6O)[C@H](O)[C@H]5OC5O[C@H](C)[C@@H](O)[C@H](O)[C@H]5O)[C@H]4O)[C@H]4C[C@@H](OS(=O)(=O)[O-])CC[C@]4(C)C3=CC[C@@]21C.[Na+] (stereo not given in full) | Active | 15 µg/mL | 5 µg/mL | 100 µg/mL | – | – | –
CC(C)=CC(=O)C[C@@](C)(O)[C@H]1CC[C@H]2[C@@H]3C[C@H](OC4O[C@H](C)[C@@H](O)[C@H](OC5OC[C@@H](OC6O[C@H](C)[C@@H](O)[C@H](O)[C@H]6OC6O[C@H](C)[C@H](O)[C@H](O)[C@H]6O)[C@H](O)[C@H]5OC5O[C@H](C)[C@@H](O)[C@H](O)[C@H]5O)[C@H]4O)[C@H]4C[C@@H](OS(=O)(=O)[O-])CC[C@]4(C)C3=CC[C@@]21C.[Na+] (stereo not given in full) | Active | 50 µg/mL | 50 µg/mL | 200 µg/mL | < 2420 | – | –
CC(C)CC(=O)C[C@@](C)(O)[C@H]1CC[C@H]2[C@@H]3C[C@H](OC4O[C@H](C)[C@@H](O)[C@H](OC5OC[C@@H](OC6O[C@H](CO)[C@@H](O)[C@H](O)[C@H]6OC6O[C@H](C)[C@H](O)[C@H](O)[C@H]6O)[C@H](O)[C@H]5OC5O[C@H](C)[C@@H](O)[C@H](O)[C@H]5O)[C@H]4O)[C@H]4C[C@@H](OS(=O)(=O)[O-])CC[C@]4(C)C3=CC[C@@]21C.[Na+] (stereo not given in full) | Active | 15 µg/mL | 2 µg/mL | 200 µg/mL | – | – | –
